Entries after “also recorded” stand apart in the source; their conditions may differ.
What was measured:
perfused heart = test: low-pressure or low-flow ischaemia model, perfused heart (Langendorff)
Source text: In this example, the low-pressure or low-flow ischaemia model was used, which is a model recognised as valid for cardiac ischaemia (Bolukoglu, H. et al. Am. J. Physiol. 1996: 270; H817-26).
The treatment schedule is illustrated in FIG. 1., in which the letters A-F denote the heart effluent sampling times for the measurement of metabolites. The hearts are removed from the animals and mounted on a Langerdorff appliance. The perfusion medium replacing the blood was a Krebs-Heinsleit standard bicarbonate buffer containing glucose 12 mM as energy source for cardiac metabolism.
After 30 minute perfusion at a pressure of 100 cm of water, ischaemia was induced by reducing the perfusion pressure of the heart to 25 cm of water, thus reducing coronary flow from approximately 2 ml/min to approximately 0.3 ml/min. Reduction of the perfusion pressure gives rise to ischaemia, since the heart will pump the fluid in the low-perfusion area rather than via the coronary bloodstream, supplying the flow to the heart.
This control model was compared with hearts perfused with L-carnitine 10 mM or L-carnitine fumarate 10 mM.
Cardiac function was tested in three different ways.
In the first, the NRM ^31P signal was monitored in real time.
This signal provides the best indication of the energy status of the heart.
In the second, the haemodynamics of the heart was measured by means of a pressure transducer mounted to measure the perfusion pressure. The haemodynamic measurements include heart rate, relative dP/dt (measurement of the contraction force of the heart) and the cardiac contraction amplitude. Coronary flow was also measured as an indicator of the heart's ability to provide oxygen and energy for its own metabolism.
In the third type of test, the metabolites and the enzyme LDH released by the heart were analysed in the effluent. The release of LDH indicates damage to cardiac tissue. The release of metabolites by the heart was tested by means of mass spectrometry coupled with gas chromatography.
The procedures of example 1 were substantially repeated, with the addition of a treatment with carnitine alone as a further control.

patients = conditions: oral supplementation, cited from earlier work
hemodialysis patients = conditions: i.v. 20 mg/kg for six months, then 10 mg/kg, after each dialysis session; cited from earlier work
[1] = test system: maintenance hemodialysis patients; conditions: i.v. 20 mg/kg after each dialysis session; cited from earlier work
[2] = cited from earlier work
[3] = 10 mM, post-ischemic, vs control hearts

Compound | release of LDH in heart effluent (perfused heart; 10 mM in perfusion medium, low-flow ischaemia, vs control hearts, fumarate) | reserves of high-energy phosphate (creatine phosphate, 31P NMR) (perfused heart; 10 mM, after 45 minutes of ischaemia, vs control hearts) | malate released by the heart (effluent) (perfused heart; 10 mM, low-flow ischaemia, GC-MS of effluent) | lactate released by the heart (effluent) (perfused heart; 10 mM, low-flow ischaemia, GC-MS of effluent, fumarate) | coronary flow (perfused heart; [3]) | post-ischemic cardiac contraction amplitude (perfused heart; [3]) | succinate released by the heart (effluent) (perfused heart; Example 2, FIG. 3B, compared to lactate) | ATP peaks (alpha, beta, gamma phosphate, 31P NMR) (perfused heart; Example 2, after 40 minutes of ischaemia, FIG. 2) | quality of life, early stage of treatment (patients; early stage of treatment) | quality of life, long term treatment (patients; long term treatment (six months)) | abnormal serum fatty acid profile (hemodialysis patients) | dialytic symptoms [1] | effect on serum lipid profile [1] | exercise capability, sense of well being [1] | bioavailability through the oral route [2]
C[N+](C)(C)C[C@H](O)CC(=O)[O-].O=C(O)/C=C/C(=O)O [carnitine fumarate, L-carnitine fumarate] | reduced release of LDH; also recorded: affords protection against ischemic damage | greater in treated hearts | more malate | less lactate; also recorded: lactate reduction | greater | greater | low amount of succinate as compared to lactate |  |  |  |  |  |  |  | 
C[N+](C)(C)C[C@H](O)CC(=O)[O-] [carnitine, L-carnitine] |  |  |  |  |  |  |  | lacking | effective in improving the quality of life | not sustained | partial correction | decrease | does not seem to have a great lipid-lowering potential | improvement | subject to saturation mechanism

Reference: patent US6696493B2, “Treating chronic uremic patients undergoing periodic dialysis” (Sigma-Tau Industrie Farmaceutiche Riunite S.p.A., priority 2000, dated 2004)
